The source of these data is US6717008B2, “Derivatives of C2-substituted indan-1-ol compounds, methods for their preparation and use” (Aventis Pharma Deutschland GmbH, priority 2001, dated 2004).

Series [1] deals with female NMRI mice. The experiment in a line: Anorectic action: cumulative evaporated milk consumption after 24 h feed removal. It is filed as in vivo. Particulars: dose 10 mg/kg, i.p. or po (route not specified), compared with control animals. As to the method:
The anorectic action was tested on female NMRI mice. After removal of feed for 24 hours, the preparation to be tested was administered intraperitoneally (i.p.) or by gavage (po). The animals were housed singly and, with free access to drinking water, they were offered evaporated milk 30 minutes after administration of the preparation. The consumption of evaporated milk was determined and the general behavior of the animals was monitored every half an hour for 7 hours. The measured milk consumption was compared to that of vehicle-treated control animals.

Compound `CC(=O)OC1c2ccc(Cl)cc2CC1S(C)(=O)=O` (centres unmarked) [Example 1, 1-Acetoxy-5-chloro-2-methylsulfonylindane] displayed a melting point of 136 °C. Besides, the “Reduction in cumulative milk consumption as % of the control” value in series [1] is on record as 81 % of the control.
